Data as given in ChEMBL document CHEMBL1201862, “PubChem BioAssay data set” (2004).
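Compound exposure: 48 hours, 5 concentrations, 96-well plates. GI50 is the concentration that inhibits growth by half.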 The source made the active and inactive calls. No stated cut-off is given here; in the data, active = GI50 up to about 1.1 µM and inactive = higher.

How the values were obtained:
Assay in all cases: NCI-60 cell line screen, 48 h
[1] = test system: 786-0
[2] = test system: A549
[3] = test system: ACHN
[4] = test system: CAKI-1
[5] = test system: CCRF-CEM
[6] = test system: COLO 205
[7] = test system: DLD-1
[8] = test system: DMS-114
[9] = test system: DMS-273
[10] = test system: EKVX
[11] = test system: HCC 2998
[12] = test system: HCT-116
[13] = test system: HCT-15
[14] = test system: HL-60
[15] = test system: HOP-18
[16] = test system: HOP-62
[17] = test system: HOP-92
[18] = test system: HT-29
[19] = test system: IGROV-1
[20] = test system: KM-20L2
[21] = test system: KM12
[22] = test system: LOX IMVI
[23] = test system: LXFL 529
[24] = test system: M14
[25] = test system: M19-MEL
[26] = test system: MOLT-4
[27] = test system: Malme-3M
[28] = test system: NCI-H226
[29] = test system: NCI-H23
[30] = test system: NCI-H460
[31] = test system: NCI-H522
[32] = test system: OVCAR-3
[33] = test system: OVCAR-4
[34] = test system: OVCAR-8
[35] = test system: RXF 393
[36] = test system: SF-268
[37] = test system: SF-295
[38] = test system: SF-539
[39] = test system: SK-MEL-28
[40] = test system: SK-MEL-2
[41] = test system: SK-MEL-5
[42] = test system: SK-OV-3
[43] = test system: SN12C
[44] = test system: SNB-19
[45] = test system: SNB-75
[46] = test system: SR
[47] = test system: SW-620
[48] = test system: TK-10
[49] = test system: UACC-257
[50] = test system: UACC-62
[51] = test system: UO-31
[52] = test system: XF498
[53] = test system: A498
[54] = test system: K562
[55] = test system: OVCAR-5
[56] = test system: RPMI-8226
[57] = test system: SNB-78
[58] = test system: U-251

## Cc1cc(Cl)ccc1NC(=O)C(=O)Cc1nc2ccc(C(=O)c3ccccc3)cc2nc1O
[1]
  GI50: > 100 µM (inactive)
[2]
  GI50: 75.3 µM (inactive)
[3]
  GI50: > 100 µM (inactive)
[4]
  GI50: > 100 µM (inactive)
[5]
  GI50: 35.6 µM (inactive)
[6]
  GI50: > 100 µM (inactive)
[7]
  GI50: > 100 µM (inactive)
[8]
  GI50: 33.4 µM (inactive)
[9]
  GI50: 49.2 µM (inactive)
[10]
  GI50: > 100 µM (inactive)
[11]
  GI50: > 100 µM (inactive)
[12]
  GI50: > 100 µM (inactive)
[13]
  GI50: > 100 µM
[14]
  GI50: 99.5 µM (inactive)
[15]
  GI50: > 100 µM (inactive)
[16]
  GI50: 92 µM (inactive)
[17]
  GI50: 20.4 µM (inactive)
[18]
  GI50: > 100 µM (inactive)
[19]
  GI50: > 100 µM (inactive)
[20]
  GI50: > 100 µM (inactive)
[21]
  GI50: 42.5 µM (inactive)
[22]
  GI50: > 100 µM (inactive)
[23]
  GI50: 48.6 µM (inactive)
[24]
  GI50: 96.6 µM (inactive)
[25]
  GI50: > 100 µM (inactive)
[26]
  GI50: 46.8 µM (inactive)
[27]
  GI50: > 100 µM (inactive)
[28]
  GI50: 64.7 µM (inactive)
[29]
  GI50: > 100 µM (inactive)
[30]
  GI50: 96.8 µM (inactive)
[31]
  GI50: 39.4 µM (inactive)
[32]
  GI50: > 100 µM (inactive)
[33]
  GI50: > 100 µM (inactive)
[34]
  GI50: > 100 µM (inactive)
[35]
  GI50: > 100 µM (inactive)
[36]
  GI50: > 100 µM (inactive)
[37]
  GI50: 95.1 µM (inactive)
[38]
  GI50: > 100 µM (inactive)
[39]
  GI50: > 100 µM (inactive)
[40]
  GI50: > 100 µM (inactive)
[41]
  GI50: 79.6 µM (inactive)
[42]
  GI50: > 100 µM (inactive)
[43]
  GI50: > 100 µM (inactive)
[44]
  GI50: > 100 µM (inactive)
[45]
  GI50: > 100 µM (inactive)
[46]
  GI50: 7.4 µM (inactive)
[47]
  GI50: 97.9 µM (inactive)
[48]
  GI50: > 100 µM (inactive)
[49]
  GI50: > 100 µM (inactive)
[50]
  GI50: 70 µM (inactive)
[51]
  GI50: 78.7 µM (inactive)
[52]
  GI50: > 100 µM (inactive)

## OC1OC2COC(c3ccccc3)OC2C(O)C1O (stereo unspecified)
[1]
  GI50: > 100 µM (inactive)
[53]
  GI50: > 100 µM (inactive)
[2]
  GI50: > 100 µM (inactive)
[3]
  GI50: > 100 µM (inactive)
[4]
  GI50: > 100 µM (inactive)
[5]
  GI50: > 100 µM (inactive)
[6]
  GI50: > 100 µM (inactive)
[7]
  GI50: > 100 µM (inactive)
[8]
  GI50: > 100 µM (inactive)
[9]
  GI50: > 100 µM (inactive)
[10]
  GI50: > 100 µM (inactive)
[11]
  GI50: > 100 µM (inactive)
[12]
  GI50: > 100 µM (inactive)
[13]
  GI50: > 100 µM
[14]
  GI50: > 100 µM (inactive)
[15]
  GI50: > 100 µM (inactive)
[16]
  GI50: > 100 µM (inactive)
[17]
  GI50: > 100 µM (inactive)
[18]
  GI50: > 100 µM (inactive)
[19]
  GI50: > 100 µM (inactive)
[54]
  GI50: > 100 µM (inactive)
[20]
  GI50: > 100 µM (inactive)
[21]
  GI50: > 100 µM (inactive)
[22]
  GI50: > 100 µM (inactive)
[23]
  GI50: > 100 µM (inactive)
[24]
  GI50: > 100 µM (inactive)
[25]
  GI50: > 100 µM (inactive)
[26]
  GI50: > 100 µM (inactive)
[27]
  GI50: > 100 µM (inactive)
[28]
  GI50: > 100 µM (inactive)
[29]
  GI50: > 100 µM (inactive)
[30]
  GI50: > 100 µM (inactive)
[31]
  GI50: > 100 µM (inactive)
[32]
  GI50: > 100 µM (inactive)
[33]
  GI50: > 100 µM (inactive)
[55]
  GI50: > 100 µM (inactive)
[34]
  GI50: > 100 µM (inactive)
[56]
  GI50: > 100 µM (inactive)
[36]
  GI50: > 100 µM (inactive)
[37]
  GI50: > 100 µM (inactive)
[38]
  GI50: > 100 µM (inactive)
[40]
  GI50: > 100 µM (inactive)
[41]
  GI50: > 100 µM (inactive)
[42]
  GI50: > 100 µM (inactive)
[43]
  GI50: > 100 µM (inactive)
[44]
  GI50: > 100 µM (inactive)
[57]
  GI50: > 100 µM (inactive)
[47]
  GI50: > 100 µM (inactive)
[48]
  GI50: > 100 µM (inactive)
[58]
  GI50: > 100 µM (inactive)
[49]
  GI50: > 100 µM (inactive)
[50]
  GI50: > 100 µM (inactive)
[51]
  GI50: > 100 µM (inactive)
[52]
  GI50: > 100 µM (inactive)
